Tests used:
Type in all cases: cell-based
Staphylococcus aureus = test: Acquisition of tolerance in Staphylococcus aureus (serial passages)
Protocol: (§1) Acquisition of Tolerance in Staphylococcus aureus and Staphylococcus epidermidis
(§2) One platinum loop of each test strain on a slant culture medium was inoculated into 10 ml of a growing medium (Trypto-Soya Broth manufactured by Nussui Pharmaceutical Co., Ltd.) and cultured at 37° C. for 18 to 20 hr. The thus obtained cultures were each diluted to obtain suspensions of about 10^8 cells/ml which were later used as a bacteria suspension for inoculation.
(§3) About 10 mg of compound No. 9 were weighed out and dissolved in such an amount of DMSO as to obtain a solution having a concentration of 12.8 mg/ml, after which the solution so obtained was subjected to stepwise two-fold dilutions with DMSO (12.8 to 0.1 mg/ml).
(§4) Separately, about 400 mg of Gentamicin sulfate (GM) were weighed and dissolved in distilled water to obtain a solution having a concentration of 409.6 mg/ml, after which the solution so obtained was subjected to stepwise two-fold dilutions with distilled water to prepare control medicinal solutions for comparison (409.6 to 0.1 mg/ml).
(§5) Each of the sample solutions thus obtained by the stepwise dilutions was added to a liquid medium (Trypto-Soya Broth manufactured by Nussui Pharmaceutical Co., Ltd.) in an amount of 0.01 volume thereof.
(§6) Each of the bacteria suspensions for inoculation was added to each of the sample-containing liquid media so prepared in an amount of 0.01. volume (about 10^6 cells/ml) of the liquid medium, and the bacteria were cultured at 37° C. for 2 to 4 days. Thereafter, the growth of bacteria was observed.

[1] = tested on: Staphylococcus epidermidis; test: Acquisition of tolerance in Staphylococcus epidermidis (serial passages)
Protocol: as §1, §2, §3, §4, §5, §6

[2] = tested on: Staphylococcus aureus tolerant to GM; test: Antibacterial activity against GM-tolerant Staphylococcus aureus; conditions: S. aureus tolerant to GM
Protocol: (§7) Antibacterial Activity Against GM-Sensitive and Tolerant Strains of Staphylococcus aureus and Staphylococcus epidermidis
as §2, with “10^7” for “10^8”
(§8) About 10 mg of compound No. 9 were weighed out and dissolved in such an amount of DMSO as to obtain a solution having a concentration of 10 mg/ml. Separately, about 400 mg of Gentamicin sulfate (GM) were weighed out and dissolved in distilled water to obtain a solution having a concentration of 409.6 mg/ml.
(§9) Each of the sample solutions thus prepared was added to a liquid medium (broth for determination of sensitivity, manufactured by Nussui Pharmaceutical Co., Ltd.) to obtain a liquid medium containing compound No. 9 in a concentration of 128 μg/ml or GM in a concentration of 4096 μg/ml. Further, each sample-containing medium so obtained was subjected to stepwise two-fold dilutions on a microplate with wells each containing […] of the above medium (compound No. 9: 128 to 1 μg/ml, GM: 4096 to 1 μg/ml). […]

[3] = tested on: Staphylococcus epidermidis tolerant to GM; test: Antibacterial activity against GM-tolerant Staphylococcus epidermidis; conditions: S. epidermidis tolerant to GM
Protocol: as §7
as §2, with “10^7” for “10^8”
as §8, §9

[4] = tested on: Staphylococcus aureus: IFO 13276; test: Antibacterial activity against Staphylococcus aureus: IFO 13276 (MIC, liquid dilution); conditions: S. aureus IFO 13276, 37° C., 18 to 20 hr (Table 2)
Protocol: (§10) Antibacterial Activity Against Gram-positive Bacteria
(§11) One platinum loop (oese) of a test strain on a slant culture medium was inoculated into 10 ml of each growing medium (for aerobic bacteria: Trypto-Soya Broth manufactured by Nussui Pharmaceutical Co., Ltd., for anaerobic bacteria: GAM Broth manufactured by Nussui Pharmaceutical Co., Ltd.) and cultured at. 37° C. for 18 to 20 hr. The cultures thus obtained were each diluted to obtain suspensions of about 10^7 cells/ml which were later used as a bacteria suspension for inoculation.
(§12) About 10 mg of each sample were weighed out and dissolved in such an amount of DMSO (dimethylsulfoxide) as to obtain sample solutions having a concentration of 10 mg/ml.
(§13) The sample solutions thus prepared were each added to each liquid medium (for aerobic bacteria: broth for determination of sensitivity, manufactured by Nussui Pharmaceutical Co., Ltd., for anaerobic bacteria: GAM Broth manufactured by Nussui Pharmaceutical Co., Ltd.) to obtain sample-containing medium solutions having a concentration of 128 μg/ml. Further, the thus obtained solutions were each subjected to progressive or stepwise two-fold dilutions on a microplate with wells each containing […] of the above medium (until various concentrations in a range from 128 down to 0.063 μg/ml were obtained). […]

[5] = tested on: Staphylococcus epidermidis: IFO 12993; test: Antibacterial activity against Staphylococcus epidermidis: IFO 12993 (MIC); conditions: Staphylococcus epidermidis IFO 12993, 37° C., 18 to 20 hr
Protocol: as §10, §11, §12, §13

[6] = tested on: Streptococcus agalactiae: IID 1624; test: Antibacterial activity against Streptococcus agalactiae: IID 1624 (MIC); conditions: Streptococcus agalactiae IID 1624, 37° C., 18 to 20 hr
Protocol: as §10, §11, §12, §13

[7] = tested on: Streptococcus pyogenes: IID 698; test: Antibacterial activity against Streptococcus pyogenes: IID 698 (MIC); conditions: Streptococcus pyogenes IID 698, 37° C., 18 to 20 hr
Protocol: as §10, §11, §12, §13

[8] = tested on: Bacillus subtilis: IFO 3134; test: Antibacterial activity against Bacillus subtilis: IFO 3134 (MIC); conditions: Bacillus subtilis IFO 3134, 37° C., 18 to 20 hr
Protocol: as §10, §11, §12, §13

[9] = tested on: Propionibacterium acnes: Clinical isolated No. 3; test: Antibacterial activity against Propionibacterium acnes: Clinical isolated No. 3 (MIC); conditions: Propionibacterium acnes clinical isolated No. 3, GAM Broth, 37° C., 18 to 20 hr
Protocol: as §10, §11, §12, §13

[10] = tested on: Staphylococcus aureus sensitive to GM; test: Antibacterial activity against GM-sensitive Staphylococcus aureus; conditions: S. aureus sensitive to GM, 37° C., 4 days
Protocol: as §7
as §2, with “10^7” for “10^8”
as §8, §9

[11] = tested on: Staphylococcus epidermidis sensitive to GM; test: Antibacterial activity against GM-sensitive Staphylococcus epidermidis; conditions: S. epidermidis sensitive to GM, 37° C., 4 days
Protocol: as §7
as §2, with “10^7” for “10^8”
as §8, §9

[12] = tested on: Escherichia coli: IFO 3972; test: Antibacterial activity against Gram-negative bacteria, Escherichia coli: IFO 3972 (MIC)
Protocol: Antibacterial Activity Against Gram-Negative Bacteria The procedure was performed in the same manner as Experiment Example 1.

[13] = tested on: Staphylococcus aureus: IFO 13276; test: Bactericidal activity against Staphylococcus aureus: IFO 13276 (MCC); conditions: S. aureus IFO 13276, 37° C., 18 to 20 hr, bactericidal (Table 8)
Protocol: (§14) Bactericidal Activity Against Gram-Positive Bacteria
(§15) One platinum loop of each test strain on a slant culture medium was inoculated into 10 ml of each growing medium (for aerobic bacteria: Trypto-Soya Broth manufactured by Nussui Pharmaceutical Co., Ltd., for anaerobic bacteria: GAM Broth manufactured by Nussui Pharmaceutical Co., Ltd.) and cultured at 37° C. for 18 to 20 hr. The thus obtained cultures were each diluted to obtain suspensions of about 10^7 cells/ml which were later used as a bacteria suspension for inoculation.
(§16) About 10 mg of each sample were weighed out and dissolved in such an amount of DMSO (dimethylsulfoxide) as to obtain solutions having a concentration of 10 mg/ml.
(§17) The sample solutions thus prepared were each added to each liquid medium (for aerobic bacteria: broth for determination of sensitivity, manufactured by Nussui Pharmaceutical Co., Ltd., for anaerobic bacteria: GAM Broth manufactured by Nussui Pharmaceutical Co., Ltd.) to obtain sample-containing medium solutions having a concentration of 128 μg/ml. […]
(§18) 5 μl of each bacteria suspension for inoculation were placed in each of the sample-containing liquid media so prepared, and the bacteria were cultured at 37° C. for 18 to 20 hr. […] The minimum concentrations of the samples, which have been judged to kill bacteria, are expressed as MCC (Minimum Cidal Concentration) in μg/ml. […]

[14] = tested on: Staphylococcus epidermidis: IFO 12993; test: Bactericidal activity against Staphylococcus epidermidis: IFO 12993 (MCC); conditions: S. epidermidis IFO 12993, 37° C., 18 to 20 hr, bactericidal (Table 9)
Protocol: as §14, §15, §16, §17, §18

[15] = tested on: Propionibacterium acnes: Clinical isolated No. 3; test: Bactericidal activity against Propionibacterium acnes: Clinical isolated No. 3 (MCC); conditions: P. acnes clinical isolated No. 3, 37° C., 18 to 20 hr, bactericidal (Table 9)
Protocol: as §14, §15, §16, §17, §18

COc1ccc(-c2nc(NS(=O)(=O)C(F)(F)F)sc2-c2ccccc2)cc1 [compound 9]
acquisition of tolerance (Staphylococcus aureus; 10 passages): did not induce bacterial tolerance until 10 passages | increase in MIC due to passages (Staphylococcus aureus; 10 passages): neither of the strains caused a significant increase in MIC | acquisition of tolerance ([1]; 18 passages): did not induce the tolerance until 18 passages | increase in MIC due to passages ([1]; 18 passages): neither of the strains caused a significant increase in MIC | antibacterial activity and bactericidal activity compared with GM-sensitive strains [2]: equally powerful to those against the strains sensitive to Gentamicin sulfate (GM) | antibacterial activity and bactericidal activity compared with GM-sensitive strains [3]: equally powerful to those against the strains sensitive to Gentamicin sulfate (GM)

Gentamicin sulfate [GM]
MIC (Minimum Inhibitory Concentration) [4]: 2 µg/mL | MIC (Minimum Inhibitory Concentration) [5]: 0.5 µg/mL | MIC (Minimum Inhibitory Concentration) [6]: 16 µg/mL | MIC (Minimum Inhibitory Concentration) [7]: 2 µg/mL | MIC (Minimum Inhibitory Concentration) [8]: 0.25 µg/mL | MIC (Minimum Inhibitory Concentration) [9]: 32 µg/mL | acquisition of tolerance (Staphylococcus aureus; 10 passages): highly induced the tolerance | MIC after passages (Staphylococcus aureus; 10 passages in medium containing GM): about 1000 μg/ml | acquisition of tolerance ([1]; 18 passages): highly induced the tolerance | MIC after passages ([1]; 18 passages in medium containing GM): about 1000 μg/ml | MIC (Minimum Inhibitory Concentration) [10]: 2 µg/mL | MIC (Minimum Inhibitory Concentration) ([2]; 37° C., 4 days): 2048 µg/mL | MIC (Minimum Inhibitory Concentration) [11]: 0.5 µg/mL | MIC (Minimum Inhibitory Concentration) ([3]; 37° C., 4 days): 1024 µg/mL | MIC (Minimum Inhibitory Concentration) [12]: 2 µg/mL | MCC (Minimum Cidal Concentration), column head prints MIC [13]: 128 µg/mL | MCC (Minimum Cidal Concentration), column head prints MIC [14]: 64 µg/mL | MCC (Minimum Cidal Concentration), column head prints MIC [15]: 64 µg/mL
